In patent publication US11974990B2, “TXNIP-TRX complex inhibitors and methods of using the same” (City of Hope, priority 2018, dated 2024):
“Also recorded” adds a separate entry of the source.

Biological target: T1, TXNIP-TRX complex (Homo sapiens, UniProt Q9H3M7)
T1 construct: Co-immunoprecipitation (Co-IP) of TXNIP with TRX in THP 1 monocytes cells treated with compounds under high glucose condition; endogenous in cells; host or cells: THP1 human monocytes cultured in 25 mM glucose
T1 sequence (Q9H3M7 1-391): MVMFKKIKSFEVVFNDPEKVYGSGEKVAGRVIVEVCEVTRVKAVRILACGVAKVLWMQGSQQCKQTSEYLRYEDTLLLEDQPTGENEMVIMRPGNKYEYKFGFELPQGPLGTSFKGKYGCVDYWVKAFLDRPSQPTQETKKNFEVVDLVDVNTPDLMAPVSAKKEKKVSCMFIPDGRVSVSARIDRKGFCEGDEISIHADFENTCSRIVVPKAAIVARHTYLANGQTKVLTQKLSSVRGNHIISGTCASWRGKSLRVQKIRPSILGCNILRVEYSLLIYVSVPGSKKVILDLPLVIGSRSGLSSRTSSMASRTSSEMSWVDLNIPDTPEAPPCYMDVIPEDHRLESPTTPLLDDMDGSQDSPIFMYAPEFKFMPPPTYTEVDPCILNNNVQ
Assay: Co-IP using extracts from high glucose treated THP1 cells in the presence of compounds
Type: biochemical
Settings: extracts of THP1 cells treated with 25 mM glucose 3 days; compounds added to extract (5 uM)
Method: Assay 2: Co-IP using extracts from THP 1 cells treated high glucose and in the presence of compounds. In this assay, TXNIP is already highly expressed (because the cells are treated with HG), we assume there is high concentration of TXNIP/TRX complexes in the cell extract. Co-IPs were done in these extracts through adding TRX antibody and compounds. If a compound is able to break the (pre-formed) TXNIP/TRX complex, there will be a reduced signal (band intensity) in the assay.
Co-IP with THP1 high glucose treated extract in the presence of the compounds. THP1 cells were treated with 25 mM glucose for 3 days, the cell extract were prepared. Them 300 ul extract were used for TP. Compounds were added to 5 uM Co-IP were followed according to the Co-IP protocol.
1. Transfer the cultured cells from the culture dish to a 15-mL conical tube. 2. Centrifuge at 500×g for 2 min at 4° C. and remove the supernatant. 3. Wash with ice-cold PBS and centrifuge at 500×g for 2 min at 4° C. Remove the supernatant. 4. Repeat Step 3 twice.
5. Resuspend the cell pellet in ice-cold cell lysis buffer (1 mL per 1×10^7 cells) and incubate on ice for 10 min. 6. […]
Note: Pre-clearing the lysate is recommended to reduce the non-specific binding. However, if the protein is detected by western blotting, pre-clearing may not be necessary unless a contaminating protein is interfering with visualization of the protein of interest. […]

CC(C)C(C(=O)O)N1C(=O)c2ccncc2C1=O (stereo not shown) [Compound C1, 2-(1,3-dioxo-1,3-dihydro-2H-pyrrolo[3,4-c]pyridin-2-yl)-3-methylbutanoic acid]
effect on pre-formed TXNIP/TRX complex (co-IP band intensity): inhibit high glucose-induced TXNIP-TRX co-immunoprecipitation in cell extracts; also recorded: reproducibly can affect TXNIP/TRX complex
